In patent publication US6878736B1, “Histamine H3 receptor ligands” (James Black Foundation Limited, priority 1998, dated 2005):

Key:
Histamine H3 receptor [1] = biological target: T1, Histamine H3 receptor (Cavia porcellus, UniProt Q9JI35); assay: Histamine H3 radioligand binding assay, guinea pig cortex ([3H]-R-α-methylhistamine); details: guinea pig cortex membranes, competition with 1 nM [3H]-R-α-methylhistamine; for Ki: read-out: pKi (Guinea pig cortex) (converted)
Procedure, shortened: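 Male Dunkin Hartley guinea pig cortical membranes incubated 165 min at 21±3 °C in 20 mM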

Histamine H3 receptor [2] = biological target: T1, Histamine H3 receptor; assay: Histamine H3 functional assay, guinea pig ileum (ileal longitudinal muscle, myenteric plexus); set-up: species or system tissue; details: antagonist affinity from rightward shift of R-(α)-methylhistamine E/[A] curves (Schild), typical variance ±0.15 log units; for Kb: read-out: pKb (Guinea pig ileum) (converted)
Procedure, shortened: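 Longitudinal muscle–myenteric plexus strips from male Dunkin-Hartley guinea pigs (250-300 g), Krebs-Henseleit buffer at 37±1° C, field-stimulated at 0.1 Hz, 0.5 msec, supramaximal voltage; isometric recording. Cumulative R-(α)-methylhistamine E/[A] curves as % inhibition of twitch height; antagonist affinity by Schild analysis of rightward shift.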

T1 sequence (Q9JI35 whole entry): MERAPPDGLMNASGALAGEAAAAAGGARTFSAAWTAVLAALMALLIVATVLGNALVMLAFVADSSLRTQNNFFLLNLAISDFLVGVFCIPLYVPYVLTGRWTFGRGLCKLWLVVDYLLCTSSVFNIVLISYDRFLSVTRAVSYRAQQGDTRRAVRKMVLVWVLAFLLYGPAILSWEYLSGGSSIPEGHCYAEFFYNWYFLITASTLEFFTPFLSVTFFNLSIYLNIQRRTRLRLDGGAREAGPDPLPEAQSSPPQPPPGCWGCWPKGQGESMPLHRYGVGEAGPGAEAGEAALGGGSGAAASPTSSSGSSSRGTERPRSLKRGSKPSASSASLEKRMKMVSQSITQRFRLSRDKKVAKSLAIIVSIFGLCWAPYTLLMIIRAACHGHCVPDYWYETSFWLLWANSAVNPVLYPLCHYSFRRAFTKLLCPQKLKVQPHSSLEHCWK

Compound	Ki (Histamine H3 receptor [1]) [nM]	Kb (Histamine H3 receptor [2]) [nM]	pKi (Guinea pig cortex) (Histamine H3 receptor [1])	pKb (Guinea pig ileum) (Histamine H3 receptor [2])
CN1CCC[C@H]1CCCNS(=O)(=O)c1ccc2ccccc2c1 [Example 91, N-(3-(1-Methyl-pyrrolidin-2S-yl)-propyl)-2-naphthalenesulfonamide]	126	501		
CN1CCC[C@H]1CCCNS(=O)(=O)c1ccc(Cl)cc1 [Example 98, N-(3-(1-Methyl-pyrrolidin-2S-yl)-propyl)-(4-chlorophenyl)-sulfonamide]	794	794		
CN1CCC[C@H]1CCCNS(=O)(=O)Cc1ccc(Cl)cc1 [Example 99]	200	316		
CN1CCC[C@H]1CCCNS(=O)(=O)Cc1ccccc1 [Example 100, N-(3-(1-Methyl-pyrrolidin-2S-yl)-propyl)-phenyl-methanesulfonamide]	200	501		
CN1CCC[C@H]1CCCNS(=O)(=O)Cc1ccc(Br)cc1 [Example 101, N-(3-(1-Methyl-pyrrolidin-2S-yl)-propyl)-(4-bromophenyl)-methanesulfonamide]	251	1000		
CN1CCC[C@H]1CCCNS(=O)(=O)CCc1ccc(Cl)cc1 [Example 102, N-(3-(1-Methyl-pyrrolidin-2S-yl)-propyl)-2-(4-chlorophenyl)-ethanesulfonamide]	63.1	316		
CN1CCC[C@H]1CCCNS(=O)(=O)CCCc1ccc(Cl)cc1 [Example 103, N-(3-(1-Methyl-pyrrolidin-2S-yl)-propyl)-3-(4-chlorophenyl)-propanesulfonamide]	126	316		
CN1CCCC1CCCCNS(=O)(=O)Cc1ccc(Cl)cc1 (stereo not drawn) [Example 104, N-(4-(1-Methyl-pyrrolidin-2S-yl)-butyl)-(4-chlorophenyl)-methanesulfonamide]	398	398		
CN1CCCC1CCCCCNS(=O)(=O)Cc1ccc(Cl)cc1 (stereo not drawn) [Example 105, N-(5-(1-Methyl-pyrrolidin-2S-yl)-pentyl)-(4-chlorophenyl)-methanesulfonamide]	398	501		
O=S(=O)(Cc1ccc(Cl)cc1)NCCCN1CCCC1 [Example 106, N-(3-Pyrrolidin-1-yl-propyl)-(4-chlorophenyl)-methanesulfonamide]	1000	631		
CN1CCC[C@H]1CCCNS(=O)(=O)NCc1ccc(Cl)cc1 [Example 107, N-(4-Chlorobenzyl)-N′-(3-(1-methyl-pyrrolidin-2S-yl)-propyl)-sulfamide]	100	158		
CN1CCC[C@H]1CCCNS(=O)(=O)NCC1CCCCC1 [Example 110, N-Cyclohexyl-methyl-N′-(3-(1-methyl-pyrrolidin-2S-yl)-propyl)-sulfamide]	501	2510		
CN1CCC[C@H]1CCCNS(=O)(=O)Nc1ccc(Cl)cc1 [Example 112, N-(4-Chlorophenyl)-N′-(3-(1-methyl-pyrrolidin-2S-yl)-propyl)-sulfamide]	398	1580		
CN1CCC[C@H]1CCCNS(=O)(=O)NCc1ccc(Br)cc1 [Example 113, N-(4-Bromobenzyl)-N′-(3-(1-methyl-pyrrolidin-2S-yl)-propyl)-sulfamide]	100	200		
CN1CCC[C@H]1CCCNS(=O)(=O)NCc1ccc(I)cc1 [Example 114, N-(4-Iodobenzyl)-N′-(3-(1-methyl-pyrrolidin-2S-yl)-propyl)-sulfamide]	316	100		
CN1CCC[C@H]1CCNS(=O)(=O)NCc1ccc(Cl)cc1 [Example 115, N-(4-Chlorobenyl)-N′-(2-(1-methyl-pyrrolidin-2S-yl)-ethyl)-sulfamide]	501	398		
CN1CCCC1CCCCNS(=O)(=O)NCc1ccc(Cl)cc1 (stereo not drawn) [Example 116, N-(4-Chlorobenzyl)-N′-(4-(1-methyl-pyrrolidin-2S-yl)-butyl)-sulfamide]	126	200		
CC(C)CN1CCC[C@H]1CCCNS(=O)(=O)NCc1ccc(Cl)cc1 [Example 119]	15.8	2000		

Compound	Ki (Histamine H3 receptor [1]) [nM]	Kb (Histamine H3 receptor [2]) [nM]	pKi (Guinea pig cortex) (Histamine H3 receptor [1])	pKb (Guinea pig ileum) (Histamine H3 receptor [2])
CN1CCC[C@H]1CCCN(C)S(=O)(=O)N(C)Cc1ccc(Cl)cc1 [Example 120, N-(4-Chlorobenzyl)-N,N′-dimethyl-N′-(3-(1-methyl-pyrrolidin-2S-yl)-propyl)-sulfamide]	501	501		
CN1CCC[C@H]1CCCNS(=O)(=O)N(C)Cc1ccc(Cl)cc1 [Example 121, N-(4-Chlorobenzyl)-N-methyl-N′-(3-(1-methyl-pyrrolidin-2S-yl)-propyl)-sulfamide]	316	1000		
CN1CCC[C@H]1CCCN(C)S(=O)(=O)NCc1ccc(Cl)cc1 [Example 122, N-(4-Chlorobenzyl)-N′-methyl-N′-(3-(1-methyl-pyrrolidin-2S-yl)propyl)-sulfamide]	126	316		
CN1CCC[C@H]1CCCN(CCCN1C(=O)c2ccccc2C1=O)S(=O)(=O)NCc1ccc(Cl)cc1 [Example 125, N-(4-Chlorobenzyl)-N′-(3-phthalimido-propyl)-N′-(3-(1-methyl-pyrrolidin-2S-yl)propyl)-sulfamide]	316	> 3160		
CNC(=O)CN(CCC[C@@H]1CCCN1C)S(=O)(=O)NCc1ccc(Cl)cc1 [Example 127, N-(4-Chlorobenzyl)-N′-(methylamidomethyl)-N′-(3-(1-methyl-pyrrolidin-2S-yl)propyl)-sulfamide]	2000	2000		
CN1CCC[C@H]1CCCN(CCCc1ccc(Cl)cc1)S(=O)(=O)NCc1ccc(Cl)cc1 [Example 131, N-(4-Chlorobenzyl)-N′-(3-(4-chlorophenyl)propyl)-N′-(3-(1-methyl-pyrrolidin-2S-yl)propyl)-sulfamide]	1000	> 3160		
CN1C[C@H](O)C[C@@H]1CCCNS(=O)(=O)NCc1ccc(Cl)cc1 [Example 132, N-(4-Chlorobenzyl)-N′-(3-(4R-hydroxy-1-methyl-pyrrolidin-2S-yl)-propyl)-sulfamide]			6.9	5.8
CN1CC(OCc2ccc(Cl)cc2)CC1CCCNS(=O)(=O)NCc1ccc(Cl)cc1 (stereo not drawn) [Example 133, N-(4-Chlorobenzyl)-N′-(3-(4R-(4-chlorobenzyloxy)-1-methyl-pyrrolidin-2S-yl)-propyl)-sulfamide]	2510	> 3160		
O=S(=O)(NCCCN1CCCC1)NCc1ccc(Cl)cc1 [Example 135, N-(4-Chlorobenzyl)-N′-(3-pyrrolidin-1-yl-propyl)-sulfamide]	316	631		
CN1CCCC1CCCCS(=O)(=O)NCc1ccc(Cl)cc1 (stereo not drawn) [Example 136, N-(4-Chlorobenzyl)-4-(1-methyl-pyrrolidin-2S-yl)-butanesulfonamide]	316	316		
O=S(=O)(NCCCCN1CCCC1)NCc1ccc(Cl)cc1 [Example 139, N-(4-Chlorobenzyl)-N′-(4-pyrrolidin-1-yl-butyl)-sulfamide]	200	501		
O=S(=O)(NCCCCN1CCCC1)N(CCCCN1CCCC1)Cc1ccc(Cl)cc1 [Example 140, N-(4-Chlorobenzyl)-N N′-bis(4-pyrrolidin-1-yl-butyl)-sulfamide]	7.94	316		
O=S(=O)(NCCCCCN1CCCC1)NCc1ccc(Cl)cc1 [Example 141, N-(4-Chlorobenzyl)-N′-(5-pyrrolidin-1-yl-pentyl)-sulfamide]	251	501		
CN1CCC[C@H]1CCCNS(=O)(=O)CCC1CCCCC1 [Example 142, N-(3-(1-Methyl-pyrrolidin-2S-yl)-propyl)-2-cyclohexyl-ethanesulfonamide]	631	2000		
N-Adamantan-1-yl-methyl-N′-(3-pyrrolidin-1-yl-propyl)-guanidine bis-hydrochloride [Example 28]			7.5	6.7
N-Adamantan-1-yl-methyl-N′-(4-pyrrolidin-1-yl-butyl)-guanidine bis-hydrochloride [Example 29]			8.4	7.7
N-Biphenyl-4-yl-methyl-N′-(5-pyrrolidin-1-yl-pentyl)-guanidine bis-hydrochloride [Example 55]			7.5	6.6
